From patent US11117900B2 (Vertex Pharmaceuticals Incorporated, priority 2012, dated 2021)

Tested on: HCT116 colorectal cancer cells
Assay: Cisplatin sensitization assay (96 h MTS cell viability);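 also: compound concentration needed to lower the IC50 of Cisplatin alone by a set fold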
Type: cell-based
Settings: Cisplatin sensitization value
How it was run: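 HCT116 cells were dosed simultaneously with compound and cisplatin as a full matrix of 2-fold serial dilutions from 10 μM top final concentration. Incubation was 96 h at 37° C., 5% CO2, followed by 1 h with MTS reagent for the viability read-out. Sensitization values were binned into +++, ++ and + categories.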

Row | Structure (SMILES) | Cisplatin Sensitization Assay
1 | N#CCc1cnc2c(C(=O)Nc3cnccc3OC3CCCCC3)c(N)nn2c1 [I-O-39, 2-amino-6-(cyanomethyl)-N-(4-(cyclohexyloxy)pyridin-3-yl)pyrazolo[1,5-a]pyrimidine-3-carboxamide] | +++ (Compounds with a Cisplatin sensitization value of <0.02 μM are marked with “+++.”)
2 | N#CCc1cnc2c(C(=O)Nc3cnccc3OCCCO)c(N)nn2c1 [I-O-40, 2-amino-6-(cyanomethyl)-N-(4-(3-hydroxypropoxy)pyridin-3-yl)pyrazolo[1,5-a]pyrimidine-3-carboxamide] | ++ (Compounds with a Cisplatin sensitization value >0.02 μM but <0.2 μM are marked with “++.”)
3 | N#CCc1cnc2c(C(=O)Nc3cnccc3OC3CCCOC3)c(N)nn2c1 (centres unmarked) [I-O-41, 2-amino-6-(cyanomethyl)-N-(4-((tetrahydro-2H-pyran-3-yl)oxy)pyridin-3-yl)pyrazolo[1,5-a]pyrimidine-3-carboxamide] | +++ (Compounds with a Cisplatin sensitization value of <0.02 μM are marked with “+++.”)
4 | N#CCc1cnc2c(C(=O)Nc3cnccc3O[C@H]3CCOC3)c(N)nn2c1 [I-O-42, (S)-2-amino-6-(cyanomethyl)-N-(4-((tetrahydrofuran-3-yl)oxy)pyridin-3-yl)pyrazolo[1,5-a]pyrimidine-3-carboxamide] | +++ (Compounds with a Cisplatin sensitization value of <0.02 μM are marked with “+++.”)
5 | N#CCc1cnc2c(C(=O)Nc3cnccc3OC3CCCC3)c(N)nn2c1 [I-O-43, 2-amino-6-(cyanomethyl)-N-(4-(cyclopentyloxy)pyridin-3-yl)pyrazolo[1,5-a]pyrimidine-3-carboxamide] | +++ (Compounds with a Cisplatin sensitization value of <0.02 μM are marked with “+++.”)
6 | Nc1nn2cc(F)cnc2c1C(=O)Nc1cnccc1OC1CCS(=O)(=O)CC1 [I-O-45, 2-amino-N-(4-((1,1-dioxidotetrahydro-2H-thiopyran-4-yl)oxy)pyridin-3-yl)-6-fluoropyrazolo[1,5-a]pyrimidine-3-carboxamide] | +++ (Compounds with a Cisplatin sensitization value of <0.02 μM are marked with “+++.”)
7 | CN1CCC(Oc2c(Cl)cncc2NC(=O)c2c(N)nn3cc(Cl)cnc23)CC1 [I-O-46, 2-amino-6-chloro-N-(5-chloro-4-((1-methylpiperidin-4-yl)oxy)pyridin-3-yl)pyrazolo[1,5-a]pyrimidine-3-carboxamide] | + (Compounds with a Cisplatin sensitization value >0.2 μM but <5 μM are marked with “+.”)
8 | CN(C)CCOCCOc1ccncc1NC(=O)c1c(N)nn2cc(Cl)cnc12 [I-O-47, 2-amino-6-chloro-N-(4-(2-(2-(dimethylamino)ethoxy)ethoxy)pyridin-3-yl)pyrazolo[1,5-a]pyrimidine-3-carboxamide] | + (Compounds with a Cisplatin sensitization value >0.2 μM but <5 μM are marked with “+.”)
9 | CN(C)CCOc1ccncc1NC(=O)c1c(N)nn2cc(Cl)cnc12 [I-O-48, 2-amino-6-chloro-N-(4-(2-(dimethylamino)ethoxy)pyridin-3-yl)pyrazolo[1,5-a]pyrimidine-3-carboxamide] | ++ (Compounds with a Cisplatin sensitization value >0.02 μM but <0.2 μM are marked with “++.”)
10 | CN1CCC[C@H]1COc1ccncc1NC(=O)c1c(N)nn2cc(Cl)cnc12 [I-O-50, (S)-2-amino-6-chloro-N-(4-((1-methylpyrrolidin-2-yl)methoxy)pyridin-3-yl)pyrazolo[1,5-a]pyrimidine-3-carboxamide] | + (Compounds with a Cisplatin sensitization value >0.2 μM but <5 μM are marked with “+.”)
11 | CN(C)CCCOc1ccncc1NC(=O)c1c(N)nn2cc(Cl)cnc12 [I-O-52, 2-amino-6-chloro-N-(4-(3-(dimethylamino)propoxy)pyridin-3-yl)pyrazolo[1,5-a]pyrimidine-3-carboxamide] | + (Compounds with a Cisplatin sensitization value >0.2 μM but <5 μM are marked with “+.”)
12 | Nc1nn2cc(Cl)cnc2c1C(=O)Nc1cnccc1OCCCO [I-O-53, 2-amino-6-chloro-N-(4-(3-hydroxypropoxy)pyridin-3-yl)pyrazolo[1,5-a]pyrimidine-3-carboxamide] | +++ (Compounds with a Cisplatin sensitization value of <0.02 μM are marked with “+++.”)
13 | Nc1nn2cc(Cl)cnc2c1C(=O)Nc1cnccc1O[C@@H]1CCOC1 [I-O-54, (R)-2-amino-6-chloro-N-(4-((tetrahydrofuran-3-yl)oxy)pyridin-3-yl)pyrazolo[1,5-a]pyrimidine-3-carboxamide] | +++ (Compounds with a Cisplatin sensitization value of <0.02 μM are marked with “+++.”)
14 | COCCOc1ccncc1NC(=O)c1c(N)nn2cc(Cl)cnc12 [I-O-55, 2-amino-6-chloro-N-(4-(2-methoxyethoxy)pyridin-3-yl)pyrazolo[1,5-a]pyrimidine-3-carboxamide] | ++ (Compounds with a Cisplatin sensitization value >0.02 μM but <0.2 μM are marked with “++.”)
15 | CCOc1ccncc1NC(=O)c1c(N)nn2cc(Cl)cnc12 [I-O-56, 2-amino-6-chloro-N-(4-ethoxypyridin-3-yl)pyrazolo[1,5-a]pyrimidine-3-carboxamide] | +++ (Compounds with a Cisplatin sensitization value of <0.02 μM are marked with “+++.”)
16 | COc1ccncc1NC(=O)c1c(N)nn2cc(Cl)cnc12 [I-O-57, 2-amino-6-chloro-N-(4-methoxypyridin-3-yl)pyrazolo[1,5-a]pyrimidine-3-carboxamide] | +++ (Compounds with a Cisplatin sensitization value of <0.02 μM are marked with “+++.”)
17 | Nc1nn2cc(Cl)cnc2c1C(=O)Nc1cnccc1O[C@H]1CCOC1 [I-O-58, (S)-2-amino-6-chloro-N-(4-((tetrahydrofuran-3-yl)oxy)pyridin-3-yl)pyrazolo[1,5-a]pyrimidine-3-carboxamide] | +++ (Compounds with a Cisplatin sensitization value of <0.02 μM are marked with “+++.”)
18 | Nc1nn2cc(Cl)cnc2c1C(=O)Nc1cnccc1OCC(F)(F)F [I-O-59, 2-amino-6-chloro-N-(4-(2,2,2-trifluoroethoxy)pyridin-3-yl)pyrazolo[1,5-a]pyrimidine-3-carboxamide] | +++ (Compounds with a Cisplatin sensitization value of <0.02 μM are marked with “+++.”)
19 | Nc1nn2cc(Cl)cnc2c1C(=O)Nc1cnccc1OCCN1CCOCC1 [I-O-60, 2-amino-6-chloro-N-(4-(2-morpholinoethoxy)pyridin-3-yl)pyrazolo[1,5-a]pyrimidine-3-carboxamide] | ++ (Compounds with a Cisplatin sensitization value >0.02 μM but <0.2 μM are marked with “++.”)
20 | Nc1nn2cc(Cl)cnc2c1C(=O)Nc1cnccc1OC1CCOCC1 [I-O-61, 2-amino-6-chloro-N-(4-((tetrahydro-2H-pyran-4-yl)oxy)pyridin-3-yl)pyrazolo[1,5-a]pyrimidine-3-carboxamide] | +++ (Compounds with a Cisplatin sensitization value of <0.02 μM are marked with “+++.”)
21 | Nc1nn2cc(Cl)cnc2c1C(=O)Nc1cnccc1OC1CN2CCC1CC2 (centres unmarked) [I-O-62, 2-amino-6-chloro-N-(4-(quinuclidin-3-yloxy)pyridin-3-yl)pyrazolo[1,5-a]pyrimidine-3-carboxamide] | +++ (Compounds with a Cisplatin sensitization value of <0.02 μM are marked with “+++.”)
22 | CN1CCC(Oc2ccncc2NC(=O)c2c(N)nn3cc(Cl)cnc23)CC1 [I-O-64, 2-amino-6-chloro-N-(4-((1-methylpiperidin-4-yl)oxy)pyridin-3-yl)pyrazolo[1,5-a]pyrimidine-3-carboxamide] | +++ (Compounds with a Cisplatin sensitization value of <0.02 μM are marked with “+++.”)
23 | Nc1nn2cc(Cl)cnc2c1C(=O)Nc1cnccc1OC1CCCOC1 (centres unmarked) [I-O-65, 2-amino-6-chloro-N-(4-((tetrahydro-2H-pyran-3-yl)oxy)pyridin-3-yl)pyrazolo[1,5-a]pyrimidine-3-carboxamide] | +++ (Compounds with a Cisplatin sensitization value of <0.02 μM are marked with “+++.”)
24 | Nc1nn2cc(Cl)cnc2c1C(=O)Nc1cnccc1OCCO [I-O-66, 2-amino-6-chloro-N-(4-(2-hydroxyethoxy)pyridin-3-yl)pyrazolo[1,5-a]pyrimidine-3-carboxamide] | + (Compounds with a Cisplatin sensitization value >0.2 μM but <5 μM are marked with “+.”)
25 | COCCN1CCC[C@H](Oc2ccncc2NC(=O)c2c(N)nn3cc(Cl)cnc23)C1 [I-O-67, (S)-2-amino-6-chloro-N-(4-((1-(2-methoxyethy)piperidin-3-yl)oxy)pyridin-3-yl)pyrazolo[1,5-a]pyrimidine-3-carboxamide] | ++ (Compounds with a Cisplatin sensitization value >0.02 μM but <0.2 μM are marked with “++.”)
26 | CN(C)CCOc1cc(Cl)ncc1NC(=O)c1c(N)nn2cc(Cl)cnc12 [I-O-68, 2-amino-6-chloro-N-(6-chloro-4-(2-(dimethylamino)ethoxy)pyridin-3-yl)pyrazolo[1,5-a]pyrimidine-3-carboxamide] | ++ (Compounds with a Cisplatin sensitization value >0.02 μM but <0.2 μM are marked with “++.”)
27 | CN1CC[C@H](Oc2ccncc2NC(=O)c2c(N)nn3cc(Cl)cnc23)C1 [I-O-69, (S)-2-amino-6-chloro-N-(4-((1-methylpyrrolidin-3-yl)oxy)pyridin-3-yl)pyrazolo[1,5-a]pyrimidine-3-carboxamide] | ++ (Compounds with a Cisplatin sensitization value >0.02 μM but <0.2 μM are marked with “++.”)
28 | Nc1nn2cc(Cl)cnc2c1C(=O)Nc1cnccc1Oc1cccnc1 [I-O-70, 2-amino-6-chloro-N-(4-(pyridin-3-yloxy)pyridin-3-yl)pyrazolo[1,5-a]pyrimidine-3-carboxamide] | +++ (Compounds with a Cisplatin sensitization value of <0.02 μM are marked with “+++.”)
29 | CN(C)CCOc1cc(C(F)(F)F)ncc1NC(=O)c1c(N)nn2cc(Cl)cnc12 [I-O-71, 2-amino-6-chloro-N-(4-(2-(dimethylamino)ethoxy)-6-(trifluoromethyl)pyridin-3-yl)pyrazolo[1,5-a]pyrimidine-3-carboxamide] | + (Compounds with a Cisplatin sensitization value >0.2 μM but <5 μM are marked with “+.”)
